The subject of test [1] is E. Coli 114 Sensitive. In words: Two-fold tube dilution test vs. trimethoprim-sensitive E. coli (Table 4). The class given is cell-based. The note with it: Escherichia coli, minimal medium, 37° C., 18 hours, read-out: Minimum Inhibitory Concentration. The protocol:
(§1) Compounds V - VIII were tested and compared with trimethoprim, as control, against two external strains, (Escherichia coli) a sensitive No. 114 and a No. 114 carrying a resistant (R) factor which mediates the synthesis of an altered dihydrofolate reductase; S. G. R. Amyes and J. T. Smith, Biochem. and Biophys., Res. Comm., 58, 412 (1974).
(§2) The method used was a two-fold tube dilution test in 5 ml. amounts of minimal medium. The inoculum was 0.1 ml. of a 1:1T dilution of a 24 hour broth culture. The test was incubated at 37° C. for 18 hours.

In test [2] the test system is E. Coli (Resistant). In words: microbe, parasite or virus in culture. The class given is cell-based, Escherichia coli. The note with it: for MIC: Escherichia coli, 18 h, read-out: Minimum Inhibitory Concentration. As to the method:
as §1, §2

The subject of test [3] is Enterobacter aerogenes 13048. In words: Two-fold tube dilution test, minimal medium (Table 2). The class given is cell-based. The note with it: Klebsiella aerogenes, 37° C., 18 hours, read-out: Minimum Inhibitory Concentration. The protocol:
(§3) The four compounds, i.e., compounds V, VI, VII, VIII, were tested against a series of strains including:
(§4) Escherichia coli Juhl and Escherichia coli 3100. The method used was a two-fold tube dilution test in 5 ml. amounts of minimal medium. The inoculum was 0.1 ml. of a 1:1T dilution of a 24 hour broth culture. The test was incubated at 37° C. for 18 hours.

The subject of test [4] is Escherichia coli 3100. The description is as above. The class given is cell-based. The note with it: 37° C., 18 hours, read-out: Minimum Inhibitory Concentration. The protocol: as §3, §4
Test [5] has as its system Escherichia coli Juhl. The test is described as above. The class given is cell-based. The note with it: 37° C., 18 hours, read-out: Minimum Inhibitory Concentration. As to the method:
as §3, §4

For test [6], the system named is Klebsiella pneumoniae 8045. Described as above. The class given is cell-based. The note with it: 37° C., 18 hours, read-out: Minimum Inhibitory Concentration. As to the method:
as §3, §4

Test [7] concerns Proteus mirabilis Finland #9. Described as above. The class given is cell-based. The note with it: 37° C., 18 hours, read-out: Minimum Inhibitory Concentration. As to the method:
as §3, §4

The subject of test [8] is Salmonella typhimurium Ed 9. The test is described as above. The class given is cell-based. The note with it: Salmonella enterica, 37° C., 18 hours, read-out: Minimum Inhibitory Concentration. The protocol: as §3, §4
Test [9] deals with Staphylococcus aureus 209P. In words: Tube dilution test, Mueller Hinton Medium (Table 3). The class given is cell-based. The settings on record: 18 h, read-out: Minimum Inhibitory Concentration. As to the method:
(§5) Escherichia coli Juhl and Escherichia coli 3100. The method used was a two-fold tube dilution test in 5 ml. amounts of minimal medium. The inoculum was 0.1 ml. of a 1:1T dilution of a 24 hour broth culture. The test was incubated at 37° C. for 18 hours. A similar test was made on other strains with the compounds (V, VI, VII and VIII) in 5 ml. amounts of Mueller Hinton Medium.

Test [10] has as its system Staphylococcus aureus Smith. The description is as above. It is filed as cell-based. The note with it: 18 h, read-out: Minimum Inhibitory Concentration. The protocol: as §5
Test [11] relates to Streptococcus pyogenes C203. The description is as above. It is filed as cell-based. The settings on record: 18 h, read-out: Minimum Inhibitory Concentration. As to the method: as §5
The subject of test [12] is E. Coli 3100. In words: In vitro potentiation of sulfonamides, two-fold tube dilution test in BBL Nutrient broth (Table 5). The class given is cell-based, Escherichia Coli. The note with it: MIC of sulfonamide alone vs in combination. The protocol:
The potentiation properties of the compounds, i.e., compounds V - VIII in various combinations with sulfa compounds, i.e., sulfonamides (sulfamethoxazole, sulfadiazine, sulfamethazine and sulfamerazine) were tested. The method was a two-fold tube dilution test using BBL Nutrient broth in 5 ml. amounts. The inoculum was 0.1 ml. of a 10^-3 dilution 24 hour broth culture of Escherichia Coli 3100. The test was incubated at 37° C. for 18 hours. | *The potentiation effect shown is determined by measuring the minimum | inhibitory concentration (MIC) of the sulfonamide alone and in combinatio | with the compound at the indicated ratios.

Test [13] relates to E. Coli (Juhl). In words: Acute Mouse Protection Test (Table 6). The class given is in vivo, Female, Swiss albino mice. The note with it: approximate, combination with sulfamethoxazole, medicated 1 and 5 hours post-infection, 7 days. As to the method: (§6) The test bacteria were transferred to Brain Heart Infusion Broth and incubated at 37° C. for 18 hours. Log dilutions of the organism were made in BHI broth and mixed with 3% hog gastric mucin.
(§7) Female, Swiss albino mice, 18 - 20 grams, were injected intraperitoneally with 0.75 ml. of inoculum.
(§8) The optimum dilution was one in which each mouse received 10 - 10 LD50 's of the infecting organism.
(§9) The test compound was diluted in such a way that there were 5 drug levels (each level is half as concentrated as the one above) in each test. Ten infected mice were treated with each level of drug. The mice were medicated 1 and 5 hours post-infection.

The subject of test [14] is P. Mirabilis. In words: Acute Mouse Protection Test (Table 6). The class given is in vivo, Female, Swiss albino mice. The settings on record: approximate, combination with sulfamethoxazole, medicated 1 and 5 hours post-infection, 7 days. The protocol:
as §6, §7, §8, §9

In test [15] the test system is E. Coli (48). In words: Acute Mouse Protection Test (Table 6). The class given is in vivo, Female, Swiss albino mice. The settings on record: approximate, combination with sulfamethoxazole, medicated 1 and 5 hours post-infection, 7 days. As to the method: as §6, §7, §8, §9
In test [16] the test system is P. Vulgaris. In words: Acute Mouse Protection Test (Table 6). The class given is in vivo, Female, Swiss albino mice. The settings on record: approximate, combination with sulfamethoxazole, medicated 1 and 5 hours post-infection, 7 days. As to the method:
as §6, §7, §8, §9

The mark [17] stands for this setting: Sulfadiazine, Compound/Sulfa Ratio 1:1.
Where [18] appears, read: Sulfadiazine, Compound/Sulfa Ratio 1:5.

Each structure is given as a SMILES string. Converted amounts (≈) assume the structure as drawn.

The record followed here is US4087528A, “2,4-Diamino-5-benzylpyrimidines” (Abbott Laboratories, priority 1976, dated 1978).

Turning to `COc1cc(Cc2cnc(N)nc2N)cc(OC)c1OC` [Trimethoprim, reference compound], the MIC in test [1] was 0.2 µg/mL (≈ 0.689 µM); in test [2] it was 3000 µg/mL (≈ 10300 µM). Moreover, the “increase in resistance caused by the resistant (R) factor” value in test [2] (R factor in E. Coli 114 versus sensitive) was “several thousand-fold”.
Consider `Nc1ncc(Cc2cc(Cl)c(N)c(Cl)c2)c(N)n1` [V, 2,4-Diamino-5-(4-amino-3,5-dichlorobenzyl)pyrimidine], for which the MIC in test [3] stood at 1.56 µg/mL (≈ 5.49 µM); in test [4], 0.39 µg/mL (≈ 1.37 µM); in test [5], 0.78 µg/mL (≈ 2.75 µM); in test [6], 1.56 µg/mL (≈ 5.49 µM); in [7], 25 µg/mL (≈ 88 µM); in [8] it was 3.1 µg/mL (≈ 10.9 µM). Further, the MIC in [9] came to 6.2 µg/mL (≈ 21.8 µM); in test [10] it was 25 µg/mL (≈ 88 µM); in [11], 6.2 µg/mL (≈ 21.8 µM); in test [1], 1.56 µg/mL (≈ 5.49 µM); in test [2] it was 400 µg/mL (≈ 1410 µM). Also, the Potentiation in test [12] (setting [17]) is 31.0 X; in test [12] (setting [18]), 3.1 X. Further, the entries for the “CD50, Cmpd. part of the Sulfa/Cmpd. combination” value in test [13] and in test [14] were 45 Mg./Kg and 30 Mg./Kg, respectively.
As to `CNc1c(Cl)cc(Cc2cnc(N)nc2N)cc1Cl` [VI, 2,4-Diamino-5-(3,5-dichloro-4-methylaminobenzyl)pyrimidine], the MIC in test [3] was found to be 3.1 µg/mL (≈ 10.4 µM); in [4] it was 3.1 µg/mL (≈ 10.4 µM); in test [5], 6.2 µg/mL (≈ 20.8 µM); in test [6], 6.2 µg/mL (≈ 20.8 µM); in test [7], 12.5 µg/mL (≈ 41.9 µM); in test [8], 3.1 µg/mL (≈ 10.4 µM). Moreover, the MIC is 3.1 µg/mL (≈ 10.4 µM) in test [9]; 6.2 µg/mL (≈ 20.8 µM) in test [10]; 6.2 µg/mL (≈ 20.8 µM) in test [11]; 1.56 µg/mL (≈ 5.23 µM) in [1]; greater than 400 µg/mL in test [2]. The Potentiation in test [12] (setting [17]) was found to be 15.9 X; in test [12] (setting [18]) it was 3.1 X. The “CD50, Cmpd. part of the Sulfa/Cmpd. combination” value in test [15] worked out at 3 Mg./Kg; in test [13] it was 30 Mg./Kg; in [14] it was 60 Mg./Kg; in test [16] it was 2 Mg./Kg.
As for `CCNc1c(Cl)cc(Cc2cnc(N)nc2N)cc1Cl` [VII, 2,4-Diamino-5-(3,5-dichloro-4-ethylaminobenzyl)pyrimidine], the MIC came out at 25 µg/mL (≈ 80.1 µM) in test [3]; 6.2 µg/mL (≈ 19.9 µM) in test [4]; 3.1 µg/mL (≈ 9.93 µM) in test [5]; 12.5 µg/mL (≈ 40 µM) in test [6]; 50 µg/mL (≈ 160 µM) in test [7]; 12.5 µg/mL (≈ 40 µM) in test [8]. In addition, the MIC turned out to be 3.1 µg/mL (≈ 9.93 µM) in [9]; 6.2 µg/mL (≈ 19.9 µM) in test [10]; 12.5 µg/mL (≈ 40 µM) in [11]; 3.1 µg/mL (≈ 9.93 µM) in test [1]; 200 µg/mL (≈ 641 µM) in test [2]. Also, the Potentiation in test [12] (setting [17]) is 8.0 X; in test [12] (setting [18]), 6.2 X; in [12] (Sulfamerazine, Compound/Sulfa Ratio 1:1), 8.0 X; in [12] (Sulfamerazine, Compound/Sulfa Ratio 1:5), 3.2 X; in [12] (Sulfamethazine, Compound/Sulfa Ratio 1:1) it was 4.0 X; in test [12] (Sulfamethazine, Compound/Sulfa Ratio 1:5) it was 3.2 X. Moreover, the Potentiation stood at 4.0 X in [12] (Sulfamethoxazole, Compound/Sulfa Ratio 1:1) and 3.1 X in test [12] (Sulfamethoxazole, Compound/Sulfa Ratio 1:5). The “CD50, Cmpd. part of the Sulfa/Cmpd. combination” value in test [15] came out at 2 Mg./Kg; in [13] it was 35 Mg./Kg; in test [14], 30 Mg./Kg; in test [16], 2 Mg./Kg.
Regarding `CN(C)c1c(Cl)cc(Cc2cnc(N)nc2N)cc1Cl` [VIII, 2,4-Diamino-5-(3,5-dichloro-4-dimethylaminobenzyl)pyrimidine], the MIC came to 3.1 µg/mL (≈ 9.93 µM) in test [3]; 6.2 µg/mL (≈ 19.9 µM) in test [4]; 6.2 µg/mL (≈ 19.9 µM) in test [5]; 6.2 µg/mL (≈ 19.9 µM) in [6]; 25 µg/mL (≈ 80.1 µM) in test [7]; 6.2 µg/mL (≈ 19.9 µM) in [8]. For the same compound, the MIC is 1.56 µg/mL (≈ 5 µM) in test [9]; 3.1 µg/mL (≈ 9.93 µM) in test [10]; 3.1 µg/mL (≈ 9.93 µM) in test [11]; 6.2 µg/mL (≈ 19.9 µM) in test [1]; 100 µg/mL (≈ 320 µM) in test [2]. Also, the Potentiation in [12] (setting [17]) is reported as 8.0 X; in test [12] (setting [18]), 1.6 X. Moreover, the “CD50, Cmpd. part of the Sulfa/Cmpd. combination” value is given as 3 Mg./Kg in [15], 45 Mg./Kg in test [13], 80 Mg./Kg in test [14] and 2 Mg./Kg in [16].
